According to PubChem BioAssay (NCI):
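Following 48 hours of exposure in 96-well plates, responses at five concentrations were used to interpolate endpoints linearly. GI50: concentration for 50% inhibition of growth. TGI: concentration producing complete growth inhibition.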

Experiments:
Experiment in all cases: NCI tumour cell line growth inhibition, 48 h
SR leukemia = tested on: SR leukemia
EKVX NSCLC = tested on: EKVX NSCLC
SW-620 colon = tested on: SW-620 colon
HL-60(TB) leukemia = tested on: HL-60(TB) leukemia
OVCAR-5 ovarian = tested on: OVCAR-5 ovarian
IGROV1 ovarian = tested on: IGROV1 ovarian
CAKI-1 renal = tested on: CAKI-1 renal
SK-MEL-5 melanoma = tested on: SK-MEL-5 melanoma
NCI-H23 lung = tested on: NCI-H23 lung
SK-MEL-28 melanoma = tested on: SK-MEL-28 melanoma

Structure (SMILES)	TGI (SR leukemia)	TGI (EKVX NSCLC)	TGI (SW-620 colon)	TGI (HL-60(TB) leukemia)	TGI (OVCAR-5 ovarian)	TGI (IGROV1 ovarian)	TGI (CAKI-1 renal)	TGI (SK-MEL-5 melanoma)	TGI (NCI-H23 lung)	TGI (SK-MEL-28 melanoma)	GI50 (SR leukemia)	GI50 (EKVX NSCLC)	GI50 (SW-620 colon)	GI50 (HL-60(TB) leukemia)	GI50 (OVCAR-5 ovarian)	GI50 (IGROV1 ovarian)	GI50 (CAKI-1 renal)	GI50 (SK-MEL-5 melanoma)	GI50 (NCI-H23 lung)	GI50 (SK-MEL-28 melanoma)
CCOC(=O)COc1ccc2c(C)cc(=O)oc2c1	> 100 µM	> 100 µM	> 100 µM	> 100 µM	> 100 µM	> 100 µM	> 100 µM	> 100 µM	> 100 µM	> 100 µM	–	–	–	–	–	–	–	–	–	–
CCc1nc(N)nc(N)c1-c1ccc(N2CCNCC2)cc1	> 66.9 µM	> 100 µM	> 100 µM	> 71 µM	> 100 µM	> 100 µM	> 100 µM	40.9 µM	> 97.3 µM	> 100 µM	–	–	–	–	–	–	–	–	–	–
C=C1C(=O)OC2/C=C(/C)C(OC(C)=O)C/C=C(\C)C(OC(=O)C3(C)OC3C)C(O)C12 (centres undefined)	> 100 µM	> 100 µM	> 100 µM	> 100 µM	> 100 µM	> 100 µM	> 100 µM	> 100 µM	> 100 µM	> 100 µM	–	–	–	–	–	–	–	–	–	–
NS(=O)(=O)OCCCCCCCOS(N)(=O)=O	912 µM	847 µM	1280 µM	469 µM	1400 µM	937 µM	594 µM	649 µM	795 µM	1680 µM	–	–	–	–	–	–	–	–	–	–
COC(=O)C=Cc1ccc2nncnc2c1 (mixture of isomers)	> 100 µM	> 100 µM	> 100 µM	> 100 µM	> 100 µM	> 100 µM	> 100 µM	20.8 µM	–	> 100 µM	–	–	–	–	–	–	–	–	–	–
Brc1ccc2ns[s+]c2c1	> 100 µM	> 100 µM	> 100 µM	> 100 µM	> 100 µM	> 100 µM	> 100 µM	> 46.7 µM	> 100 µM	> 100 µM	–	–	–	–	–	–	–	–	–	–
Nc1ncnc2c1ncn2C1OC(CO)C(O)C1N (centres undefined)	> 100 µM	> 100 µM	> 100 µM	> 100 µM	> 100 µM	> 100 µM	> 100 µM	> 100 µM	> 100 µM	> 100 µM	–	–	–	–	–	–	–	–	–	–
O=C(Nc1nc2c(ncn2C2OC(CO)C(O)C2O)c(=O)[nH]1)c1ccccc1 (centres undefined)	> 100 µM	> 100 µM	> 100 µM	> 100 µM	> 100 µM	> 100 µM	> 100 µM	> 100 µM	> 100 µM	> 100 µM	–	–	–	–	–	–	–	–	–	–
COc1cc2c(=O)[nH]c3cc([N+](=O)[O-])ccc3c2cc1[N+](=O)[O-]	> 100 µM	> 100 µM	> 100 µM	> 100 µM	> 100 µM	> 100 µM	> 100 µM	> 100 µM	> 100 µM	> 100 µM	2950 nM	7.08 µM	3810 nM	> 100000 nM	63400 nM	3870 nM	6180 nM	4630 nM	3690 nM	> 100000 nM
Cc1c(/C=N/N(C)C)oc2c1cc(O)c1ncccc12	40.4 µM	6.37 µM	> 100 µM	6.46 µM	> 100 µM	55.7 µM	22.4 µM	39.3 µM	> 100 µM	> 100 µM	–	–	–	–	–	–	–	–	–	–
O=S(=O)(c1cnccc1N1CCN(CCO)CC1)N1CCCC1	> 100 µM	> 100 µM	> 100 µM	> 100 µM	> 100 µM	> 100 µM	> 100 µM	> 100 µM	> 100 µM	> 100 µM	–	–	–	–	–	–	–	–	–	–
CN(C)C(=S)SCC(=O)Nc1ccccc1	> 100 µM	> 100 µM	> 100 µM	> 100 µM	> 100 µM	> 100 µM	> 100 µM	> 100 µM	> 100 µM	> 100 µM	–	–	–	–	–	–	–	–	–	–
COc1cccc(/C=C2\COc3ccc(-c4ccccc4)cc3C2=O)c1	> 100 µM	> 100 µM	4.54 µM	> 100 µM	13.2 µM	8.39 µM	6.42 µM	3.55 µM	10 µM	3.62 µM	1980 nM	4.8 µM	2010 nM	2520 nM	3670 nM	3120 nM	2550 nM	1670 nM	3140 nM	1910 nM
O=C1/C=C/[C@@H](O)[C@@H]2C[C@@H](O)C[C@H]2/C=C/CCC[C@H](C(F)(F)F)O1	0.591 µM	> 100 µM	0.331 µM	0.605 µM	24.7 µM	4.16 µM	27.4 µM	0.32 µM	4.17 µM	0.65 µM	199 nM	1.33 µM	142 nM	243 nM	933 nM	561 nM	178 nM	128 nM	285 nM	96 nM
COC(=O)CSSCc1ccc([N+](=O)[O-])cc1	70.2 µM	69.2 µM	36.8 µM	76.2 µM	35.6 µM	17.1 µM	8.09 µM	50.9 µM	> 100 µM	36.7 µM	–	–	–	–	–	–	–	–	–	–
Nc1c(Cl)ncnc1NCCCNc1ncnc(Cl)c1N	> 100 µM	> 100 µM	> 100 µM	> 100 µM	> 100 µM	> 100 µM	> 100 µM	> 100 µM	> 100 µM	> 100 µM	–	–	–	–	–	–	–	–	–	–
O=c1[nH]cnc2c1nnn2CCCCCCCCCCCCn1nnc2c(=O)[nH]cnc21	> 100 µM	> 82.5 µM	> 100 µM	> 100 µM	> 100 µM	> 77.8 µM	> 100 µM	> 100 µM	39.2 µM	> 100 µM	–	–	–	–	–	–	–	–	–	–
CC(=O)[O][Hg][c]1c(C)c(C)cc(C)c1C	2.21 µM	3.11 µM	2.31 µM	2.61 µM	3.84 µM	2.37 µM	5.4 µM	4.66 µM	3.32 µM	3.02 µM	62.9 nM	1.25 µM	732 nM	704 nM	1940 nM	703 nM	2030 nM	1800 nM	1030 nM	1500 nM
